Results on three compounds are retold here after ChEMBL document CHEMBL1150485, “Rapid synthesis and properties of ()-6-Deoxy-6-fluoro-myo-inositol-1,4,5-tris(phosphate) an analogue of myo-inositol-1,4,5-tris(phosphate)” (Bioorg Med Chem Lett, 1996).

Each structure is given as a SMILES string.

For the assay, the species on record is Bos taurus. In words: Binding affinity on adrenal cortex microsomes. It is filed as functional.
For the compound `O=P(O)(O)O[C@@H]1[C@H](O)[C@H](O)[C@@H](OP(=O)(O)O)[C@H](OP(=O)(O)O)[C@H]1F`, the Kd (usually a measure of binding affinity in units of concentration) amounted to 1.6 µM. `O=P(O)(O)O[C@@H]1CC[C@@H](OP(=O)(O)O)[C@H](OP(=O)(O)O)C1` came in with a Kd of 4 µM. The compound `O=P(O)(O)O[C@@H]1[C@H](O)[C@H](O)[C@@H](OP(=O)(O)O)[C@H](OP(=O)(O)O)[C@H]1O` [INS(1,4,5)P3] came in with a Kd of 0.01 µM.
